Results taken from BindingDB's records for doi:10.1124/jpet.105.096792 (University of Tours, 2006).

Target: Sodium-dependent dopamine transporter (Rattus norvegicus, UniProt P23977)
Sequence (P23977 whole entry): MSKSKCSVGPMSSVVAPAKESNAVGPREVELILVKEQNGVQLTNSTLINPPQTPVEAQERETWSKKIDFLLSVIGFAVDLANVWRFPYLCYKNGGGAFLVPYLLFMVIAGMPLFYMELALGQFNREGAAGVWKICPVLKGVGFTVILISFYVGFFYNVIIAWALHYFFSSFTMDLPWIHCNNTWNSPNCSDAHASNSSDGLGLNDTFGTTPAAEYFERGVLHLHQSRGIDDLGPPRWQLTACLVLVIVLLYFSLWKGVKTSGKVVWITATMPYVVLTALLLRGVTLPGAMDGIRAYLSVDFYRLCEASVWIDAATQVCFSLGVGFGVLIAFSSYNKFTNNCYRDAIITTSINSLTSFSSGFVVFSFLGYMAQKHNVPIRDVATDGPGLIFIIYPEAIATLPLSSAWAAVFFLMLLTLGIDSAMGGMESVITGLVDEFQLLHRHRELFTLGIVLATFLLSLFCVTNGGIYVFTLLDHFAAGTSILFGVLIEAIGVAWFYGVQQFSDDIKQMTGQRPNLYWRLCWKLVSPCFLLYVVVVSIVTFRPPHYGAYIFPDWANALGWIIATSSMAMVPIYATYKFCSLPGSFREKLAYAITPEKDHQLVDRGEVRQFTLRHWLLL

SMILES | Ki
Cc1ccc(Sc2ccccc2CN(C)C)c(N)c1 [2-(2-Dimethylaminomethyl-phenylsulfanyl)-5-methyl-phenylamine] | 1 µM
COC(=O)[C@H]1[C@@H](c2ccc(C)cc2)C[C@@H]2CC[C@H]1N2C/C=C/I | 0.018 µM
